Measured values published in patent publication US20180127374A1, “BE[…] AS OPIOID RECEPTORS MODULATORS” (Purdue Pharma L.P., priority 2012, published 2018).
Read-outs that look alike come from different tables or passages of the source.

What was measured:
μ-opioid receptor [1] = biological target: T1, μ-opioid receptor (Homo sapiens, UniProt P35372); assay: μ-opioid receptor radioligand dose-displacement binding assay
Experimental: Radioligand dose-displacement binding assays for μ-opioid receptors used 0.3 nM [^3H]-diprenorphine (Perkin Elmer, Shelton, Conn.), with […] membrane protein/well in a final volume of […] binding buffer (10 mM MgCl2, 1 mM EDTA, 5% DMSO, 50 mM HEPES, pH 7.4). Reactions were carried out in the absence or presence of increasing concentrations of unlabeled naloxone. All reactions were conducted in 96-deep well polypropylene plates for 2 hr at room temperature. […] The data were analyzed using the one-site competition curve fitting functions in GraphPad PRISM™ v. 3.0 or higher (San Diego, Calif.), or an in-house function for one-site competition curve-fitting.
Target sequence in this assay (P35372 whole entry): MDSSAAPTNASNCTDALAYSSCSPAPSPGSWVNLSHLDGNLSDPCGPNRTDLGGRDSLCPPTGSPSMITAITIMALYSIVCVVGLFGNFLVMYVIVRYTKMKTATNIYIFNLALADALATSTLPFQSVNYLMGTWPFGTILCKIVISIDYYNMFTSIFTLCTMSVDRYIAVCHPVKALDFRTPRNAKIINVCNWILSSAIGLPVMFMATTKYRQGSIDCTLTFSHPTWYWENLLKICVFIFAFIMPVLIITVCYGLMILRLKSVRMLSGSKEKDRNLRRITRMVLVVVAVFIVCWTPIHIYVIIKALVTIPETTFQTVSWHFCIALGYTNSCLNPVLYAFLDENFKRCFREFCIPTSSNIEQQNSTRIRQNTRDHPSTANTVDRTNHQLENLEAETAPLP

κ opioid receptor [2] = biological target: T2, κ opioid receptor (Homo sapiens, UniProt P41145); assay: κ-opioid receptor radioligand dose displacement binding assay; parameters: expressed in transfected cells; host or cells: HEK-293
Experimental: Membranes from recombinant HEK-293 cells expressing the human κ opioid receptor (κ) (cloned in house) were prepared by lysing cells in ice cold hypotonic buffer (2.5 mM MgCl2, 50 mM HEPES, pH 7.4) (10 mL/10 cm dish) followed by homogenization with a tissue grinder/Teflon pestle. Membranes were collected by centrifugation at 30,000×g for 15 min at 4° C. and pellets were resuspended in hypotonic buffer to a final concentration of 1-3 mg/mL. Protein concentrations were determined using the BioRad protein assay reagent with bovine serum albumen as standard. Aliquots of κ receptor membranes were stored at […]

μ-opioid receptor [3] = biological target: T1, μ-opioid receptor; assay: μ-opioid receptor [35S]GTPγS functional assay; assay type: biochemical; parameters: purchased Perkin Elmer, Shelton, Conn; conditions: for Emax: relative to the effect elicited by DAMGO
Experimental: [^35S]GTPγS functional assays were conducted using freshly thawed μ-receptor membranes (Perkin Elmer, Shelton, Conn.). Assay reactions were prepared by sequentially adding the following reagents to binding buffer (100 mM NaCl, 10 mM MgCl2, 20 mM HEPES, pH 7.4) on ice (final concentrations indicated): membrane protein (0.026 mg/mL), saponin ([…]), GDP ([…]) and [^35S]GTPγS (0.20 nM; Perkin Elmer, Shelton, Conn.). The prepared membrane solution (190 μl/well) was transferred to 96-shallow well polypropylene plates containing 10 μI of 20× concentrated stock solutions of the agonist [D-Ala^e, N-methyl-Phe^4 Gly-ol^5]-enkephalin (DAMGO) prepared in dimethyl sulfoxide (DMSO). Plates were incubated for 30 min at about 25° C. with shaking. […] Data were analyzed using the sigmoidal dose-response curve fitting functions in GraphPad PRISM v. 3.0, or an in-house function for non-linear, sigmoidal dose-response curve-fitting.
μ GTP EC50 is the concentration of a compound providing 50% of the maximal response for the compound at a μ-opioid receptor.
μ GTP Emax (%) is the maximal effect elicited by a compound relative to the effect elicited by DAMGO, a standard μ agonist. Generally, the μ GTP Emax (%) value measures the efficacy of a compound to treat or prevent pain or other Conditions.
Target sequence in this assay (P35372 whole entry, species assumed): as the sequence (P35372 whole entry) above

κ opioid receptor [4] = biological target: T2, κ opioid receptor; assay: κ-opioid receptor [35S]GTPγS functional assay; assay type: biochemical; parameters: expressed in transfected cells; conditions: for Emax: relative to the effect elicited by U69,593
Experimental: Functional [^35S]GTPγS binding assays were conducted as follows. κ opioid receptor membrane solution was prepared by sequentially adding final concentrations of 0.026 μg/μl κ membrane protein (in-house), 10 μg/mL saponin, 3 μM GDP and 0.20 nM [^35S]GTPγS to binding buffer (100 mM NaCl, 10 mM MgCl2, 20 mM HEPES, pH 7.4) on ice. The prepared membrane solution (190 μl/well) was transferred to 96-shallow well polypropylene plates containing 10 μl of 20× concentrated stock solutions of agonist prepared in DMSO. Plates were incubated for 30 min at a temperature of about 25° C. with shaking.
κ GTP EC50 is the concentration of a compound providing 50% of the maximal response for the compound at a κ receptor.
κ GTP Emax (%) is the maximal effect elicited by a compound relative to the effect elicited by U69,593.

[5] = [3H]-diprenorphine displacement, read-out: Ki (nM) Opioid Receptor μ
[6] = [3H]-U69,593 displacement, HEK-293 membranes, read-out: Ki (nM) Opioid Receptor κ
[7] = μ-receptor membranes, μM, read-out: GTPγS μ EC50
[8] = κ membrane protein (in-house), read-out: GTPγS κ EC50
[9] = μ-receptor membranes, read-out: GTPγS μ EC50

T2 sequence (P41145 whole entry): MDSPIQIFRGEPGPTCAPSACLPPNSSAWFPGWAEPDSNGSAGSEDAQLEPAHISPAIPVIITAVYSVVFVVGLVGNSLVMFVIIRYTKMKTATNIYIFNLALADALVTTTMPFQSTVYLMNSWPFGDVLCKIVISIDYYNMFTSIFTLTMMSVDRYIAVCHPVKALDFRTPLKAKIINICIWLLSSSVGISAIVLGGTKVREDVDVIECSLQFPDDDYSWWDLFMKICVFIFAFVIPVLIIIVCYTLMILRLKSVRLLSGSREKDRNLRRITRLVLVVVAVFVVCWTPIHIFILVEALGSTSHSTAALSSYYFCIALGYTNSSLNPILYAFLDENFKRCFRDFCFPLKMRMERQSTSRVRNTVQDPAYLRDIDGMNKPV

Row | Structure (SMILES) | Ki (μ-opioid receptor [1]; [5]) [nM] | Ki (κ opioid receptor [2]; [6]) [nM] | EC50 (μ-opioid receptor [3]; [7]) [µM] | Emax (κ opioid receptor [4]) [%] | EC50 (κ opioid receptor [4]; [8]) [µM] | Ki (μ-opioid receptor [1]) [nM] | Ki (κ opioid receptor [2]) [nM] | EC50 (μ-opioid receptor [3]) [µM] | EC50 (κ opioid receptor [4]) [µM] | Emax (μ-opioid receptor [3]) [%] | EC50 (μ-opioid receptor [3]; [9]) [µM] | EC50 (κ opioid receptor [4]; κ membrane protein (in-house), μM, read-out: GTPγS κ EC50) [µM] | Ki (κ opioid receptor [2]; [3H]-U69,593 displacement, μM, read-out: Ki Opioid Receptor κ) [nM]
1 | C[C@H](NC(=O)C[C@@]12CCN(CC3CC3)C(Cc3ccc(O)cc31)[C@@H]2C)C(N)=O [Compound 1, (2S)-2-(2-((6R,11R)-3-(cyclopropylmethyl)-8-hydroxy-11-methyl-1,2,3,4,5,6-hexahydro-2,6-methanobenzo[d]azocin-6-yl)acetamido)propanamide] | 31.7 ± 6.24 | 1.48 ± 0.27 | > 20 | 31.3 | 0.00891 | – | – | – | – | – | – | – | –
2 | C[C@H]1C2Cc3ccc(O)cc3[C@@]1(CCCC(N)=O)CCN2CC1CC1 [Compound 2, 4-((6S,11R)-3-(cyclopropylmethyl)-8-hydroxy-11-methyl-1,2,3,4,5,6-hexahydro-2,6-methanobenzo[d]azocin-6-yl)butanamide] | 10.7 ± 1.82 | 0.49 ± 0.11 | > 20 | 67.3 | 0.00898 | – | – | – | – | – | – | – | –
3 | COc1ccc2c(c1)[C@@]1(CCCC(=O)O)CCN(CC3CC3)C(C2)[C@@H]1C [Compound 3, 4-((6S,11R)-3-(cyclopropylmethyl)-8-methoxy-11-methyl-1,2,3,4,5,6-hexahydro-2,6-methanobenzo[d]azocin-6-yl)butanoic acid] | 1110 ± 32.6 | 137 ± 41.9 | > 20 | 80.7 | 3.47 | – | – | – | – | – | – | – | –
4 | C[C@H]1C2Cc3ccc(O)cc3[C@@]1(CCCC(=O)O)CCN2CC1CC1 [Compound 4, 4-((6S,11R)-3-(cyclopropylmethyl)-8-hydroxy-11-methyl-1,2,3,4,5,6-hexahydro-2,6-methanobenzo[d]azocin-6-yl)butanoic acid] | 7.61 ± 2.44 | 2.52 ± 0.23 | > 20 | 67.3 | 0.0248 | – | – | – | – | – | – | – | –
5 | COc1ccc2c(c1)[C@@]1(CC(=O)O)CCN(CC3CC3)C(C2)[C@@H]1C [Compound 5, 2-((6R,11R)-3-(cyclopropylmethyl)-8-methoxy-11-methyl-1,2,3,4,5,6-hexahydro-2,6-methanobenzo[d]azocin-6-yl)acetic acid] | – | 4460 ± 1850 | > 20 | – | – | – | – | – | – | – | – | – | –
6 | COc1ccc2c(c1)[C@@]1(C[C@H](O)CO)CCN(CC3CC3)C(C2)[C@@H]1C [Compound 6, (2S)-3-((6R,11R)-3-(cyclopropylmethyl)-8-methoxy-11-methyl-1,2,3,4,5,6-hexahydro-2,6-methanobenzo[d]azocin-6-yl)propane-1,2-diol] | – | – | – | 69.3 | – | 3340 ± 895 | 46.4 ± 9.7 | > 20 | 3.09 | – | – | – | –
7 | COc1ccc2c(c1)[C@@]1(CC(=O)N[C@@H](C)C(N)=O)CCN(CC3CC3)C(C2)[C@@H]1C [Compound 7, (2S)-2-(2-((6R,11R)-3-(cyclopropylmethyl)-8-methoxy-11-methyl-1,2,3,4,5,6-hexahydro-2,6-methanobenzo[d]azocin-6-yl)acetamido)propanamide] | – | 193 ± 68.7 | > 20 | 29.7 | 5 | – | – | – | – | – | – | – | –
8 | COC(=O)/C=C/C[C@@]12CCN(CC3CC3)C(Cc3ccc(OC)cc31)[C@@H]2C [Compound 8, (E)-methyl 4-((6S,11R)-3-(cyclopropylmethyl)-8-methoxy-11-methyl-1,2,3,4,5,6-hexahydro-2,6-methanobenzo[d]azocin-6-yl)but-2-enoate] | 1810 ± 553 | 3.21 ± 0.76 | – | 99.3 | 0.123 | – | – | – | – | 46.3 | 0.562 | – | –
9 | COc1ccc2c(c1)[C@@]1(CCC[C@@H](O)CO)CCN(CC3CC3)C(C2)[C@@H]1C [Compound 10, (2R)-5-((6S,11R)-3-(cyclopropylmethyl)-8-methoxy-11-methyl-1,2,3,4,5,6-hexahydro-2,6-methanobenzo[d]azocin-6-yl)pentane-1,2-diol] | – | – | – | 95 | – | 3090 ± 922 | 6.68 ± 0.61 | – | 0.0943 | – | – | – | –
10 | C[C@H]1[C@H]2Cc3ccc(O)cc3[C@]1(CCCC(N)=O)CCN2Cc1ccccc1 [Compound 19, 4-((2R,6R,11R)-3-benzyl-8-hydroxy-11-methyl-1,2,3,4,5,6-hexahydro-2,6-methanobenzo[d]azocin-6-yl)butanamide] | 2.65 ± 0.36 | – | – | – | – | – | – | – | – | 13.7 | 0.0401 | > 20 | –
11 | COc1ccc2c(c1)[C@]1(CCNC(=O)c3cccc(C(=O)O)c3)CCN(CC3CC3)[C@H](C2)[C@@H]1C [Compound 24, 3-((2-((2R,6R,11R)-3-(cyclopropylmethyl)-8-methoxy-11-methyl-1,2,3,4,5,6-hexahydro-2,6-methanobenzo[d]azocin-6-yl)ethyl)carbamoyl)benzoic acid] | – | 130 ± 26.5 | – | 88.7 | 0.664 | – | – | – | – | 76.3 | 0.251 | – | –
12 | COc1ccc2c(c1)[C@]1(CCNC(=O)c3ccc(C(=O)O)cc3)CCN(CC3CC3)[C@H](C2)[C@@H]1C [Compound 25, 4-((2-((2R,6R,11R)-3-(cyclopropylmethyl)-8-methoxy-11-methyl-1,2,3,4,5,6-hexahydro-2,6-methanobenzo[d]azocin-6-yl)ethyl)carbamoyl)benzoic acid] | – | 479 ± 36.3 | – | 69.3 | 2.41 | – | – | – | – | 104 | 0.584 | – | –
13 | COc1ccc2c(c1)[C@]1(CCOc3ccc(C(=O)O)cc3)CCN(CC3CC3)[C@H](C2)[C@@H]1C [Compound 27, 4-(2-((2R,6S,11R)-3-(cyclopropylmethyl)-8-methoxy-11-methyl-1,2,3,4,5,6-hexahydro-2,6-methanobenzo[d]azocin-6-yl)ethoxy)benzoic acid] | – | 330 ± 70.1 | – | 88.3 | 3.69 | – | – | – | – | 94.7 | 0.245 | – | –
14 | C[C@H]1[C@H]2Cc3ccc(O)cc3[C@]1(CCOc1ccc(C(=O)O)cc1)CCN2CC1CC1 [Compound 28, 4-(2-((2R,6S,11R)-3-(cyclopropylmethyl)-8-hydroxy-11-methyl-1,2,3,4,5,6-hexahydro-2,6-methanobenzo[d]azocin-6-yl)ethoxy)benzoic acid] | – | 5.75 ± 1.04 | – | 110 | 0.0391 | – | – | – | – | 86.3 | 0.00592 | – | –
15 | COc1ccc2c(c1)[C@@]1(CC(=O)O)CCN(CC3CC3)[C@@H](C2)[C@H]1C [Compound 29, 2-((2S,6R,11S)-3-(cyclopropylmethyl)-8-methoxy-11-methyl-1,2,3,4,5,6-hexahydro-2,6-methanobenzo[d]azocin-6-yl)acetic acid] | – | – | – | – | – | – | – | – | – | 24.8 | 0.346 | – | > 20000
16 | C[C@H]1[C@H]2Cc3ccc(O)cc3[C@]1(CCNC(=O)CN(C)C)CCN2CC1CC1 [Compound 30, N-(2-((2R,6R,11R)-3-(cyclopropylmethyl)-8-hydroxy-11-methyl-1,2,3,4,5,6-hexahydro-2,6-methanobenzo[d]azocin-6-yl)ethyl)-2-(dimethylamino)acetamide] | – | 0.05 ± 0.02 | – | 96.5 | 0.00177 | – | – | – | – | 82.2 | 0.00485 | – | –
17 | C[C@H]1[C@H]2Cc3ccc(O)cc3[C@@]1(CCNC(=O)CN)CCN2CC1CC1 [Compound 31] | – | 0.07 ± 0.01 | – | 90.3 | 0.0012 | – | – | – | – | 102 | 0.00287 | – | –
